According to patent US8318949B2, “Organic compounds” (Novartis AG, priority 2008, dated 2012):

molecular target: T1, stearoyl-CoA desaturase (SCD1) (Mus musculus, UniProt P13516); experiment: Stearoyl-CoA desaturase inhibition, mouse liver microsomes (release of 3H2O from [9,10-3H]stearoyl-CoA); format: biochemical; settings: 15 min incubation, 25° C., read-out: Microsomal IC50
T1 construct: Male ICR outbread mice, on a high-carbohydrate, low fat diet; from tissue; host or cells: liver microsomes of male ICR mice on a high-carbohydrate, low fat diet
T1 sequence (P13516 1-355): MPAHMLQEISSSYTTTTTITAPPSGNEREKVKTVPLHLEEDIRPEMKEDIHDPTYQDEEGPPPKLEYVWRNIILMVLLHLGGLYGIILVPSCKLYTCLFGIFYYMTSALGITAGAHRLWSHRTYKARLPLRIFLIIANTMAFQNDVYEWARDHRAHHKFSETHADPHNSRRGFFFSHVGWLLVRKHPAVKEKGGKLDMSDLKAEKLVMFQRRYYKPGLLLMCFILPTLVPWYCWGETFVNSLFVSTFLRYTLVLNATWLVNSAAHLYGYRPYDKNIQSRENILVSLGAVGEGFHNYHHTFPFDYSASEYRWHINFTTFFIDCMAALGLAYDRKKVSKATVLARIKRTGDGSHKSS
Description: The identification of compounds of the invention as SCD inhibitors was readily accomplished using the SCD enzyme and microsomal assay procedure described in Shanklin J. and Summerville C., Proc. Natl. Acad. Sci. USA (1991), Vol. 88, pp. 2510-2514.
Measuring Stearoyl-CoA Desaturase Inhibition Activity of a Test Compound Using Mouse Liver Microsomes
The identification of compounds of the invention as SCD inhibitors was readily accomplished using the SCD microsomal assay procedure described in Shanklin J. and Summerville C., Proc. Natl. Acad. Sci. USA (1991), Vol. 88, pp. 2510-2514.
Male ICR outbread mice, on a high-carbohydrate, low fat diet, under light halothane (15% in mineral oil) anesthesia are sacrificed by exsanguination during periods of high enzyme activity. Livers are immediately rinsed with cold 0.9% NaCl solution, weighed and minced with scissors. All procedures are performed at 4° C. unless specified otherwise. Livers are homogenized in a solution (1/3 w/v) containing 0.25 M sucrose, 62 mM potassium phosphate buffer (pH 7.0), 0.15 M KCl, 15 mM N-acetyleysteine, 5 mM MgCl2, and 0.1 mM EDTA using 4 strokes of a Potter-Elvehjem tissue homogenizer. The homogenate is centrifuged at 10,400×g for 20 min to eliminate mitochondria and cellular debris. The supernatant is filtered through a 3-layer cheesecloth and centrifuged at 105,000×g for 60 min. The microsomal pellet is gently resuspended in the same homogenization solution with a small glass/teflon homogenizer and stored at −70° C. The absence of mitochondrial contamination is enzymatically assessed. The protein concentration is measured using bovine serum albumin as the standard.
Desaturase activity is measured as the release of ^3H2O from [9,10-^3H]stearoyl-CoA. Reactions per assay point conditions are as follows: 2 μL 1.5 mM stearoyl-CoA, 0.25 μL 1 mCi/mL ^3H stearoyl CoA, 10 μL 20 mM NADH, 36.75 μL 0.1 M PK buffer (K2HPO4/NaH2PO4, pH 7.2). The test compound or control solution is added in a 1 μL volume. Reactions are started by adding 50 μL of microsomes (1.25 mg/mL). The plates are mixed and after 15 min incubation on a heating block (25° C.), the reactions are stopped by the addition of 10 μL 60% PCA. An aliquot of 100 μL is then transferred to a filter plate pretreated with charcoal and the plate centrifuged at 4000 rpm for 1 minute. The flow through containing the ^3H2O released by the SCD1 desaturation reaction is added to scintillation fluid and the radioactivity measured in a Packard TopCount. The data is analysed to identify the IC50 for test compounds and reference compounds.
The activity was defined in terms of % SCD enzyme activity remaining at the desired concentration of the test compound or as the IC50 concentration. The IC50 (affinity) of the example compounds toward the stearoyl-CoA desaturase is comprised between around […] and 0.0001 μM or between around 5 μM and 0.0001 μM or between around 1 μM and 0.0001 μM.

Compound | IC50 [nM]
Cc1nc(N2C[C@@H](C)N(Cc3ccc(F)cc3)C2=O)sc1C(=O)NCc1cccnc1 [Example 2.7, (R)-2-(3-(4-Fluorobenzyl)-4-methyl-2-oxoimidazolidin-1-yl)-4-methyl-N-(pyridin-3-ylmethyl)thiazole-5-carboxamide] | 36
Cc1nc(N2CCN(CC(C)C)C2=O)sc1C(=O)NCc1cccnc1 [Example 12.18, 2-(3-isobutyl-2-oxoimidazolidin-1-yl)-4-methyl-N-(pyridin-3-ylmethyl)thiazole-5-carboxamide] | 156
Cc1nc(N2CCN(Cc3cccc(C(F)(F)F)c3)C2=O)sc1-c1cc[nH]n1 [Example 17.2, 1-(4-methyl-5-(1H-pyrazol-3-yl)thiazol-2-yl)-3-(3-(trifluoromethyl)benzyl)imidazolidin-2-one] | 186
Cc1nc(N2C(=O)N(Cc3ccc(F)cc3)C3CC32)sc1C(=O)NCc1cccnc1 (centres unmarked) [Example 19, 2-(4-(4-fluorobenzyl)-3-oxo-2,4-diazabicyclo[3.1.0]hexan-2-yl)-4-methyl-N-(pyridin-3-ylmethyl)thiazole-5-carboxamide] | 1210
Cc1nc(-n2cnn(C(C)c3ccccc3)c2=O)sc1C(=O)NCc1cccnc1 (centres unmarked) [Example 20-5, 4-methyl-2-(5-oxo-1-(1-phenylethyl)-1H-1,2,4-triazol-4(5H)-yl)-N-(pyridin-3-ylmethyl)thiazole-5-carboxamide] | 98
Cc1nc(-n2cnn(C(C)c3ccccc3)c2=O)sc1C(=O)NCc1cncs1 (centres unmarked) [Example 20-10, 4-methyl-2-(5-oxo-1-(1-phenylethyl)-1H-1,2,4-triazol-4(5H)-yl)-N-(thiazol-5-ylmethyl)thiazole-5-carboxamide] | 8
Cc1nc(N2CCN(Cc3ccc(C(F)(F)F)cc3)C2=O)sc1C(=O)NCc1ccc2nccn2c1 [Example 20-22, N-(imidazo[1,2-a]pyridin-6-ylmethyl)-4-methyl-2-(2-oxo-3-(4-(trifluoromethyl)-benzyl)imidazolidin-1-yl)-thiazole-5-carboxamide] | 709
Cc1nc(N2CCN(C(C)c3ccccc3)C2=O)sc1C(=O)NCc1cncs1 (centres unmarked) [Example 20-26, 4-methyl-2-(2-oxo-3-(1-phenylethyl)-imidazolidin-1-yl)-N-(thiazol-5-yl-methyl)thiazole-5-carboxamide] | 11
Cc1nc(-n2cnn(Cc3cc(F)cc(F)c3)c2=O)sc1C(=O)NCc1ccccn1 [Example 20-52, 2-(1-(3,5-difluorobenzyl)-5-oxo-1H-1,2,4-triazol-4(5H)-yl)-4-methyl-N-(pyridin-2-ylmethyl)-thiazole-5-carboxamide] | 13
Cc1nc(-n2cnn(Cc3ccc(OC(F)(F)F)cc3)c2=O)sc1C(=O)NCc1ccccn1 [Example 20-54, 4-methyl-2-(5-oxo-1-(4-(trifluoromethoxy)-benzyl)-1H-1,2,4-triazol-4(5H)-yl)-N-(pyridin-2-ylmethyl)-thiazole-5-carboxamide] | 20
Cc1nc(-c2sc(N3CCN(Cc4ccc(OC(F)(F)F)cc4)C3=O)nc2C)n[nH]1 [Example 20-57, 1-(4-methyl-5-(5-methyl-1H-1,2,4-triazol-3-yl)thiazol-2-yl)-3-(4-(trifluoromethoxy)-benzyl)imidazolidin-2-one] | 119
Cc1nc(N2CCN(Cc3ccc(S(C)(=O)=O)cc3)C2=O)sc1C(N)=O [Example 20-133, 4-methyl-2-(3-(4-(methylsulfonyl)benzyl)-2-oxoimidazolidin-1-yl)thiazole-5-carboxamide] | 527

Other lines, results leading:

IC50 [nM] | Compound
80 | Cc1nc(-n2cnn(C(C)c3ccccc3)c2=O)sc1C(N)=O (centres unmarked) [Example 20-6, 4-methyl-2-(5-oxo-1-(1-phenylethyl)-1H-1,2,4-triazol-4(5H)-yl)thiazole-5-carboxamide]
1720 | Cc1nc(-n2cnn(Cc3ccc(F)cc3)c2=O)sc1C(=O)NCc1ccc(C(F)(F)F)nc1 [Example 20-8, 2-(1-(4-fluorobenzyl)-5-oxo-1H-1,2,4-triazol-4(5H)-yl)-4-methyl-N-((6-(trifluoromethyl)pyridin-3-yl)methyl)thiazole-5-carboxamide]
18 | Cc1nc(-n2cnn(CC3CC3(F)F)c2=O)sc1C(=O)NCc1cncs1 (centres unmarked) [Example 20-12, 2-(1-((2,2-difluorocyclopropyl)methyl)-5-oxo-1H-1,2,4-triazol-4(5H)-yl)-4-methyl-N-(thiazol-5-ylmethyl)thiazole-5-carboxamide]
208 | Cc1nc(-n2cnn(C(C)c3ccccc3)c2=O)sc1C(=O)NCc1csc(C(F)(F)F)n1 (centres unmarked) [Example 20-17, 4-methyl-2-(5-oxo-1-(1-phenylethyl)-1H-1,2,4-triazol-4(5H)-yl)-N-((2-(trifluoromethyl)-thiazol-4-yl)-methyl)thiazole-5-carboxamide]
40 | Cc1nc(N2CCN(Cc3cccc(F)c3)C2=O)sc1C(N)=O [Example 20-24, 2-(3-(3-fluorobenzyl)-2-oxoimidazolidin-1-yl)-4-methylthiazole-5-carboxamide]
551 | Cc1nc(-n2cnn(CC3CC3(F)F)c2=O)sc1C(=O)NCc1cnn(C)c1 (centres unmarked) [Example 20-76, 2-(1-((2,2-difluorocyclopropyl)methyl)-5-oxo-1H-1,2,4-triazol-4(5H)-yl)-4-methyl-N-((1-methyl-1H-pyrazol-4-yl)methyl)thiazole-5-carboxamide]
11 | Cc1cc(CNC(=O)c2sc(N3CCN(CC4CC4)C3=O)nc2C)no1 [Example 20-83, 2-(3-(cyclopropylmethyl)-2-oxoimidazolidin-1-yl)-4-methyl-N-((5-methylisoxazol-3-yl)methyl)thiazole-5-carboxamide]
8 | Cc1nc(N2CCN(Cc3cc(Cl)cc(Cl)c3)C2=O)sc1C(=O)NCc1ccccn1 [Example 20-90, 2-(3-(3,5-dichlorobenzyl)-2-oxoimidazolidin-1-yl)-4-methyl-N-(pyridin-2-ylmethyl)thiazole-5-carboxamide]
38 | Cc1nc(N2CCN(CCC3CC3)C2=O)sc1C(=O)NCc1ccccn1 [Example 20-103, 2-(3-(2-cyclopropylethyl)-2-oxoimidazolidin-1-yl)-4-methyl-N-(pyridin-2-ylmethyl)thiazole-5-carboxamide]

test system: not given; experiment: not given; settings: not given

melting point [°C] | Compound
135 to 136 | Cc1nc(N2C[C@@H](C)N(Cc3ccc(F)cc3)C2=O)sc1C(=O)NCc1cccnc1 [Example 2.7, (R)-2-(3-(4-Fluorobenzyl)-4-methyl-2-oxoimidazolidin-1-yl)-4-methyl-N-(pyridin-3-ylmethyl)thiazole-5-carboxamide]
209 to 214 | Cc1nc(N2CCN(Cc3cccc(C(F)(F)F)c3)C2=O)sc1-c1cc[nH]n1 [Example 17.2, 1-(4-methyl-5-(1H-pyrazol-3-yl)thiazol-2-yl)-3-(3-(trifluoromethyl)benzyl)imidazolidin-2-one]
